# Publication PMC12843137, “Fine-Tuning Side Chain Substitutions: Impacts on the Lipophilicity–Solubility–Permeability Interplay in Macrocyclic Peptides” (Marine Drugs, 2025)
# Like-named read-outs stand apart in the source and are kept apart here.
# Assays:
# BxPC3 cells = assay: CCK-8 antiproliferative assay, BxPC3; type: cell-based; settings: Homo sapiens, BXPC-3, 72 h, CCK-8, 72 h, mean ± SEM (n = 3); read-out: Cell proliferation IC50 BxPC3
# Description: (§1) The inhibitory activities against human pancreatic cancer PANC-1 cells of the synthesized compounds were evaluated by CCK-8 assay.
# (§2) Human pancreatic cancer cell lines PANC-1, PATU8988T and BxPC3 were purchased from the Cancer Institute & Hospital of the Chinese Academy of Medical Sciences (Shanghai, China). All three cell lines were cultured in RPMI-DMEM medium containing 10% fetal bovine serum, cultured at a constant temperature of 37 °C in a humidified incubator with 5% CO2.
# (§3) Pancreatic cancer cells are seeded into 96-well plates. After a proliferation time of 16 h, different concentrations of compounds are added into the corresponding wells and incubated for 72 h. 10 μL of CCK-8 solution is added into each well and incubated for 1–4 h at 37 °C. Shake the plates and read the OD value of each well at 450 nm on a microplate reader.
# (§4) 1. Characterization of biological activity
# (§5) Supplementary Figure S1. Cell viability is assessed using the CCK -8 assay following 72 h treatment with the tested compounds in pancreatic cancer cell lines: a) PATU8988T, b) BxPC3.
# (§6) Supplementary Table S1. The effects of compounds against two pancreatic cancer cell lines were evaluated using […]
# (§7) Cell proliferation IC 50(µM)a
# (§8) [a] IC50 va lues of the tested compounds ar e determined in PATU8988T an d BxPC3 cells. […]
# (§9) Supplementary Figure S2. Convergence of the PMF calculated from WTM -eABF simulation . […]
# recombinant human eEF1A1 = target: T1, recombinant human eEF1A1 (Homo sapiens, UniProt P68104); assay: MicroScale Thermophoresis (MST) binding assay; settings: for Kd: MST, 50 mM HEPES pH 7.4, 0.05% Tween-20, triplicate, mean ± SD
# T1 construct: purchased TMPH-01283
# T1 sequence (P68104 1-462): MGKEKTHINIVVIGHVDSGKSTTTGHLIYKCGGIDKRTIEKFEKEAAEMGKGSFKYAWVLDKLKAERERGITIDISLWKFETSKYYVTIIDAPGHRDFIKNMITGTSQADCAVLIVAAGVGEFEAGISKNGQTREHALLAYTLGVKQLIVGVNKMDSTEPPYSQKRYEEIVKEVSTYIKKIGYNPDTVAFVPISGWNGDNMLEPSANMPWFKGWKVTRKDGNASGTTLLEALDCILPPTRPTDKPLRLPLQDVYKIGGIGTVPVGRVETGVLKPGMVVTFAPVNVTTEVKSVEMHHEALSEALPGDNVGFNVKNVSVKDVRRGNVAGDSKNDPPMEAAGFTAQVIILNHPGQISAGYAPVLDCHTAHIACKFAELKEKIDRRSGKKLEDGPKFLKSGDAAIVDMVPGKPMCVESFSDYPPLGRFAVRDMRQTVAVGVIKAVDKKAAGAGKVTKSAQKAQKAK
# From the text: To investigate whether the loss of cellular activity in the BE derivatives results from diminished binding to the known intracellular target eEF1A1, we assessed direct target engagement using MST. Recombinant human eEF1A1 protein was titrated against the compounds, which were supplied in HEPES buffer (pH 7.4) and diluted as required. Binding interactions were quantified by monitoring changes in thermophoretic mobility. Detailed materials and protein labeling procedures are provided in the Supporting Information.
# Compounds were serially diluted (16-point, 2-fold) in assay buffer (50 mM HEPES, pH 7.4, 0.05% Tween-20) as ligands. Labeled eEF1A1 protein (target) was mixed 1:1 with each dilution and incubated at room temperature for 20 min. Samples were loaded into premium capillaries and analyzed on the Monolith X instrument following the manufacturer’s protocol, with infrared laser excitation at 1480 nm to generate a temperature gradient. Thermophoretic mobility was monitored via fluorescence changes before, during, and after laser activation.
# Data were analyzed using NanoTemper Analysis software (version 2.3) to fit binding curves and determine dissociation constants (Kd). Experiments were performed in triplicate, and Kd values are reported as mean ± standard deviation.
# The Lucifer Yellow fluorescence (to monitor monolayer integrity) signal is measured in a fluorescence plate reader at 485 nm excitation and 530 nm emission.
# The leakage of Lucifer Yellow, in unit of percentage (%), can be calculated using the following equation:
# %LY leakage = 100×[LY]acceptor/([LY]donor+[LY]acceptor)
# Where [LY]acceptor is the fluorescence intensity in the acceptor well (0.3 mL), and [LY]donor is the fluorescence intensity in the donor well (0.1 mL) and expressed as % leakage. The percentage of Lucifer yellow leakage […]
# should be less than 1.0%. […]
# monolayers will be compared. […]
# those in the replicate transwells (CV<30%), the monolayer's Papp data will be considered valid and […]
# Supplementary Table S3. The assessment of caco-2 cell monolayer integrity. […]
# PATU8988T cells = assay: CCK-8 antiproliferative assay, PATU8988T; type: cell-based; settings: Homo sapiens, PaTu 8988t; CCK-8, 72 h, mean ± SEM (n = 3); read-out: Cell proliferation IC50 PATU8988T
# Description: as §1, §2, §3, §4, §5, §6, §7, §8, §9
# PANC-1 cells = settings: CCK-8; cited from earlier work
Compound,IC50 (BxPC3 cells),Kd (recombinant human eEF1A1; read-out: Kd),fold weaker affinity than the parent BE (recombinant human eEF1A1; ratio of MST Kd values),IC50 (PATU8988T cells),IC50 (PANC-1 cells),Kd (recombinant human eEF1A1)
CCCCOc1ccc(-c2ccc(-c3ccc(Cn4cc(CCCCC[C@H]5OC(=O)CN(C)C(=O)/C=C/[C@@H](CN6CCN(C)CC6)NC(=O)CNC(=O)[C@@](C)(O)C(=O)[C@H]5C)nn4)cc3)cc2)cc1 [Compound 29],> 50 µM,7.82 ± 0.63 µM,approximately 3.4 fold,> 50 µM,–,–
CCCCCCCCCCCCCC1OC(=O)CN(C)C(=O)C=CC(CN2CCN(C)CC2)NC(=O)CNC(=O)C(C)(O)C(=O)C1C (centres unmarked) [BE-NMP],–,–,–,–,0.65 ± 0.19 µM,–
CC1C(=O)C(C)(O)C(=O)NCC(=O)NC(CN2CCN(C)CC2)C=CC(=O)N(C)CC(=O)OC1CCCCc1cn(CCCCCCCCNC(=N)N)nn1 (centres unmarked) [Compound 31],> 100 µM,–,–,> 50 µM,–,no detectable binding
